Experimental data published in US20260226022A1, “CRYSTAL FORM AND USE OF PARP7 INHIBITOR AND SALT THEREOF” (QILU PHARMACEUTICAL CO., LTD., priority 2023, published 2026).
“Also recorded” adds a separate entry of the source.

Legend:
[1] = Influence factor tests (stability at temperature, humidity, light; HPLC purity and XRPD); assay type: physicochemical
Description: The purity was assayed using HPLC and the crystal form was assayed using XRPD on day 0, 2 and 7, and the experimental results are shown in Table 11.
The purity was assayed using HPLC and the crystal form was assayed using XRPD on day 0, 5 and 10, and the experimental results are shown in Table 12.

[2] = Hygroscopicity test by dynamic vapor sorption (DVS); assay type: physicochemical; settings: for Hygroscopicity evaluation: Chinese Pharmacopoeia 2020 classes; for Weight gain at 80% RH / Weight gain at 90% RH: DVS, 25° C.; for Crystal form after DVS: XRPD before and after the DVS test
Description: The moisture adsorption of the sample was determined using a dynamic vapor sorption instrument from DVS Intrinsic. The sample was placed in a tared sample basket and weighed by the instrument automatically and analyzed according to the parameters in Table 10.

[3] = In vivo pharmacokinetic determination in rats (intravenous bolus and oral); parameters: species or system SD rats
Excerpt: To study the in vivo plasma pharmacokinetic behavior of the compounds of the present application after single intravenous bolus injection and oral administration, using male C57BL/6 mice or SD male rats as tested animals.
Healthy adult C57BL/6 mice or SD rats (3 rats/group), male, from Shanghai Jihui Laboratory Animal Breeding Co., Ltd. and Charles River Laboratories Co., Ltd.
The intravenous bolus injection and oral groups were consisted of 3 mice or rats, and the dose of intravenous bolus injection was 1 mg/kg in a volume of 5 mL/kg, and the dose of oral administration was 5 mg/kg in a volume of 10 mL/kg. The solvent was 5% DMSO/5% Kolliphor HS15/90% Saline.
After the animals were administered, 0.02 mL of blood was collected intravenously at 0.0833(IV), 0.25, 0.5, 1, 2, 4, 8, and 24 hours. Blood was placed in EDTA-K2 tubes, centrifuged at 4° C. and 4600 rpm for 5 min to separate the plasma, and stored at −80° C.
1) 10 μL of plasma sample was precipitated by adding 200 μL of acetonitrile, vortexed and mixed, and centrifuged for 15 min.
2) The supernatant after treatment was diluted with water, and then analyzed for the concentration of the tested compounds by LC/MS/MS.
• Liquid phase conditions: Shimadzu LC-30AD; • Mass spectrometry conditions: AB Sciex API 5500; • Chromatographic column: Phenomenex Kinetex 2.6 μm C18; • Mobile phase: A: 5 mM ammonium acetate aqueous solution (containing 0.05 vol % of formic acid); B: acetonitrile (containing 0.1 vol % of formic acid) flow rate: 0.5 mL/min;
Pharmacokinetic parameters were calculated using WinNonlin 8.0 and the pharmacokinetic parameters of the drugs administered intravenously and orally to mice or rats are shown in Tables 17 and 18 below. Wherein, “Dose” denotes the administered dose, “CL” denotes the plasma clearance, “Vss” denotes the volume of distribution at steady state of the drug, “T1/2” denotes the half-life of the drug, “AUC” denotes the area under the concentration-time curve. “Cmax” denotes the peak drug concentration, and “F” indicates bioavailability.

[4] = In vivo pharmacokinetic determination in mice (intravenous bolus and oral); parameters: species or system C57BL/6 mice
PARP7 = molecular target: T1, PARP7 (Homo sapiens, UniProt Q7Z3E1); test: PARP7 in vitro enzymatic assay; assay type: biochemical
T1 sequence (Q7Z3E1 1-657): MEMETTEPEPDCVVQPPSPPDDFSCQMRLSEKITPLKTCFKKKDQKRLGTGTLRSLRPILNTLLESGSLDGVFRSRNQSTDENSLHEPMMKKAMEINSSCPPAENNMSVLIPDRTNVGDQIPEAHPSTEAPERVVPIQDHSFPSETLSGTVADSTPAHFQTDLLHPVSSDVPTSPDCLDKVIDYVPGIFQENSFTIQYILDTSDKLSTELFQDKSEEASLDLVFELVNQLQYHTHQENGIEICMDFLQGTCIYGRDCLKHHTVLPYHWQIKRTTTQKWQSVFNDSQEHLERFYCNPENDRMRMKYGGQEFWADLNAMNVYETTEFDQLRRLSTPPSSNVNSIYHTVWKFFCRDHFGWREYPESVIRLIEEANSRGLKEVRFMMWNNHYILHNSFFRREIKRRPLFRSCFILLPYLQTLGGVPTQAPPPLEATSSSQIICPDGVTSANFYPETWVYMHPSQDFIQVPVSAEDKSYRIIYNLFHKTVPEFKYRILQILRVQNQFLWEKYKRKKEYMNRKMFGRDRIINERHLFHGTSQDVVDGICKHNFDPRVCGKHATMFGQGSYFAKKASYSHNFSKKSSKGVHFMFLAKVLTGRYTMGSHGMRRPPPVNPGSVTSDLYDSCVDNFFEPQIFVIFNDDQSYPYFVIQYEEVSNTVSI
Description: In this experiment, the inhibitory effect of the compound of formula (I) on PARP7 enzyme activity was tested by serial dilution of the tested compounds and assayed in replicates. 1. A histone-coated 384-well plate was prepared by adding 25 μL of histone solution to each well and incubating at 4° C. overnight. 2. PBST buffer, blocking buffer and assay buffer were prepared. 3. The histone-coated 384-well plate was washed 3 times using PBST buffer. Blocking was performed at room temperature for 1 hour using 50 μL of blocking buffer. The plate was washed 3 times using PBST buffer. 4. Compound preparation: A 2000× compound was prepared in a 96-well source plate. 50 nL of the compound was transferred from the source plate to a 96-well intermediate plate. Each well was supplemented with 39.95 μL of assay buffer. The plate was shaken well and centrifuged at 1000 rpm for 1 minute. 5 μL of the compound in DMSO was transferred to each well. 5. Enzymatic reaction: An enzyme mixture was incubated at 25° C. for 10 minutes. 10 μL of the enzyme mixture was added and incubated with the compound for 10 minutes at room temperature. 10 μL of assay buffer was added to the negative control wells of the assay plate. 10 μL of 2.5× Biotin-NAD+ was added to each well, followed by incubation at 25° C. for 60 min. […] The plate was immediately read using Paradigm and detected for reads at Ex550/Em620. […]

[5] = male, rat, plasma, SD rats, intravenous, 1 mg/kg
[6] = male, rat, plasma, SD rats, oral, 5 mg/kg
[7] = male, mouse, plasma, C57BL/6 mice, intravenous, 1 mg/kg
[8] = male, mouse, plasma, C57BL/6 mice, oral, 5 mg/kg

SMILES: O=C(OCCc1c[nH]c(=O)c(C(F)(F)F)c1)N1CCN(c2ncc(C(F)(F)F)cn2)CC1.[Na+] [Crystal form I]
- Purity (Area %) ([1]; 25° C./75% RH, day 5): 99.69% Area %
- Purity (Area %) ([1]; 25° C./75% RH, day 10): 99.72% Area %
- Purity (Area %) ([1]; 25° C./90% RH, day 5): 99.71% Area %
- Purity (Area %) ([1]; 25° C./90% RH, day 10): 99.74% Area %
- Purity (Area %) ([1]; 40° C., day 5): 99.71% Area %
- Purity (Area %) ([1]; 40° C., day 10): 99.70% Area %
- Purity (Area %) ([1]; 60° C., day 5): 99.72% Area %
- Purity (Area %) ([1]; 60° C., day 10): 99.67% Area %
- Purity (Area %) ([1]; Light exposure, day 5): 99.67% Area %
- XRPD ([1]; Light exposure, day 5): Crystal form I
- Purity (Area %) ([1]; Light exposure, day 10): 99.61% Area %
- Purity (Area %) ([1]; T0, day 0): 99.69% Area %
- Physicochemical stability (conclusion in words) ([1]; high humidity): a transformation of the crystal occurs under high humidity conditions
- Physicochemical stability (conclusion in words) ([1]; high temperature): physicochemical stable at high temperature
- Hygroscopicity evaluation [2]: Hygroscopic (hygroscopic weight gain of less than 15.0% but not less than 2.0%)
- Hygroscopicity evaluation ([2]; listed as crystal form I): had hygroscopicity; also recorded: slightly hygroscopic
- Weight gain at 80% RH [2]: 13.29%
- Weight gain at 80% RH ([2]; listed as crystal form I): 13.29%
- Weight gain at 90% RH [2]: 13.77%

SMILES: C[C@@H](COCCC(=O)N1CCN(c2ncc(C(F)(F)F)cn2)CC1)Nc1cn[nH]c(=O)c1C(F)(F)F [RBN-2397]
- F ([3]; SD rats, oral, 5 mg/kg): 27%
- AUC [3, 5]: 193 ng·h/mL
- clearance [3, 5]: 85 mL/min/kg
- half-life [3, 5]: 12 min
- Vd ([3]; male, rat, plasma, SD rats, intravenous, 1 mg/kg, read-out: Vss): 1.2 L/kg
- AUC [3, 6]: 264 ng·h/mL
- Cmax [3, 6]: 319 ng/mL
- F ([4]; C57BL/6 mice, oral, 5 mg/kg): 14%
- AUC [4, 7]: 288 ng·h/mL
- clearance [4, 7]: 56.7 mL/min/kg
- Vd ([4]; male, mouse, plasma, C57BL/6 mice, intravenous, 1 mg/kg, read-out: Vss): 0.6 L/kg
- AUC [4, 8]: 203 ng·h/mL
- Cmax [4, 8]: 612 ng/mL

SMILES: O=C(OCCc1c[nH]c(=O)c(C(F)(F)F)c1)N1CCN(c2ncc(C(F)(F)F)cn2)CC1 [Crystal form IV]
- Purity (Area %) ([1]; 40° C./75% RH, day 2): 99.72 Area %
- Purity (Area %) ([1]; 40° C./75% RH, day 7): 99.62 Area %
- Purity (Area %) ([1]; 60° C., day 2): 99.73 Area %
- Purity (Area %) ([1]; 60° C., day 7): 99.65 Area %
- Purity (Area %) ([1]; T0, day 0): 99.73 Area %
- Physicochemical stability (conclusion in words) ([1]; high humidity): relatively stable
- Physicochemical stability (conclusion in words) ([1]; high temperature): relatively stable
- Hygroscopicity evaluation ([2]; listed as crystal form IV): slight hygroscopicity; also recorded: slightly hygroscopic
- Weight gain at 80% RH [2]: 1.07%
- Weight gain at 80% RH ([2]; listed as crystal form IV): 1.07%
- Weight gain at 90% RH [2]: 1.11%
- Crystal form after DVS ([2]; listed as crystal form IV): no transformation of the crystal; also recorded: unchanged

SMILES: O=C(OCCc1c[nH]c(=O)c(C(F)(F)F)c1)N1CCN(c2ncc(C(F)(F)F)cn2)CC1 [Compound of formula (I), 2-(6-oxo-5-(trifluoromethyl)-1,6-dihydropyridin-3-yl)ethyl-4-(5-(trifluoromethyl)pyrimidin-2-yl) piperazine-1-carboxylate]
- F ([3]; SD rats, oral, 5 mg/kg): 47%
- Exposure in plasma compared with control compound RBN-2397 ([3]; rat plasma, same dose, intravenous bolus injection and oral administration): significantly higher exposure
- F ([4]; C57BL/6 mice, oral, 5 mg/kg): 80%
- Exposure in plasma compared with control compound RBN-2397 ([4]; mouse plasma, same dose, intravenous bolus injection and oral administration): significantly higher exposure
- Inhibition of PARP7 enzyme activity (conclusion in words) (PARP7): can effectively inhibit PARP7 enzyme activity

SMILES: O=C(OCCc1c[nH]c(=O)c(C(F)(F)F)c1)N1CCN(c2ncc(C(F)(F)F)cn2)CC1 [Crystal form X]
- Hygroscopicity evaluation ([2]; listed as crystal form X): slight hygroscopicity
- Weight gain at 80% RH ([2]; listed as crystal form X): 1.4%
- Crystal form after DVS ([2]; listed as crystal form X): no transformation of the crystal
